Experimental data as given in paper PMC9370150, “UHPLC Enantiomer Resolution for the ɑ/β-Adrenoceptor Antagonist R/S-Carvedilol and Its Major Active Metabolites on Chiralpak IB N-5” (Molecules, 2022).
pKd: −log10 of the molar value. Like-named read-outs stand apart in the source and are kept apart here.

How the values were obtained:
α1-adrenoreceptor = conditions: cited from earlier work
β-adrenoreceptor = conditions: cited from earlier work
[1] = parameters: method as in PMID 1980583; conditions: therapeutic dose; cited from earlier work
[2] = Enantiomer plasma concentrations in cardiovascular patients after oral 25 mg rac-CAR (UHPLC-UV on Chiralpak IB N-5); conditions: for concentration at 0.5 h / concentration at 1 h / concentration at 2 h / concentration at 4 h / concentration at 9 h / concentration at 12 h: human, plasma, po, 25 mg
Experimental: The developed method was applied to single plasma samples obtained from different patients after an oral dose administration of 25 mg rac-CAR under non-standardized conditions. Patients’ plasma was collected at different time intervals after drug administration and CAR and its metabolites were extracted according to the method in Section 4.7 after spiking with IS.
Blood samples obtained from patients were also collected in EDTA-containing tubes. Blood was kept cool and then centrifuged at 2000 g for 15 min. Following plasma separation, it was immediately transferred into clean polypropylene tubes. The samples were always kept at 2–8 °C while handling.
After collection, plasma was obtained and the samples stored frozen until analysis.

[3] = patient 3, sampling time 2.0 hr, oral 25 mg racemic CAR
[4] = patient 4, sampling time 4.0 hr, oral 25 mg racemic CAR
[5] = patient 5, sampling time 9.0 hr, oral 25 mg racemic CAR
[6] = patient 6, sampling time 12.0 hr, oral 25 mg racemic CAR
[7] = single enantiomers, read-out: Kd, α1-antagonistic activity
[8] = single enantiomers, read-out: Kd, β-adrenoreceptor antagonistic property

Row | Structure (SMILES) | concentration at 0.5 h [2] [ng/mL] | concentration at 1 h [2] [ng/mL] | Plasma Concentration [2, 3] [ng/mL] | Plasma Concentration [2, 4] [ng/mL] | Plasma Concentration [2, 5] [ng/mL] | Plasma Concentration [2, 6] [ng/mL] | concentration at 2 h [2] [ng/mL] | concentration at 4 h [2] [ng/mL] | concentration at 9 h [2] [ng/mL] | concentration at 12 h [2] [ng/mL] | other results
1 | COc1ccccc1OCCNCC(O)COc1cccc2[nH]c3ccccc3c12 (centres unmarked) [CAR, Carvedilol] | 41 | 98.4 | – | – | – | – | – | – | – | – | α1-adrenoceptor-antagonism eudismic ratio (α1-adrenoreceptor; parent CAR): approximately 1; pKd (α1-adrenoreceptor; racemate, read-out: apparent dissociation constant (Kd), α1-adrenoreceptor antagonist): 9.05; β-adrenoceptor-antagonism eudismic ratio (β-adrenoreceptor; parent CAR): approximately 100; pKd (β-adrenoreceptor; racemate, read-out: Kd, nonselective β-adrenoreceptor antagonist): 7.96; excreted unchanged into urine [1]: 2%; fraction of dose metabolized [1]: ~98%; plasma S/R ratios of CAR enantiomers ([2]; analyzed patient samples after 25 mg CAR racemate): ~1; Plasma concentration S/R ([2]; patient 1, sampling time 0.5 hr, oral 25 mg racemic CAR): 0.98; sum of the two enantiomers in plasma ([2]; patients investigated, 25 mg CAR racemate): ≤ 100 ng/mL
2 | COc1ccc(O)cc1OCCNC[C@@H](O)COc1cccc2[nH]c3ccccc3c12 [R-5′OHC] | – | – | 8.20 | 9.47 | 6.09 | 3.78 | – | – | – | – | –
3 | COc1cc(O)ccc1OCCNC[C@@H](O)COc1cccc2[nH]c3ccccc3c12 [R-4′OHC] | – | – | 4.51 | 4.98 | 3.54 | 1.96 | – | – | – | – | –
4 | COc1cc(O)ccc1OCCNC[C@H](O)COc1cccc2[nH]c3ccccc3c12 [S-4′OHC] | – | – | – | – | – | – | 13.7 | 16.1 | 8.18 | 5.29 | –
5 | COc1ccccc1OCCNC[C@H](O)COc1cccc2[nH]c3ccccc3c12 [S-CAR, (-)-1-(9H-carbazol-4-yloxy)-3-[2-(2-methoxyphenoxy)ethylamino] propan-2-ol] | 20.3 | 50 | – | – | – | – | – | – | – | – | pKd (α1-adrenoreceptor; [7]): 7.85; β-adrenoreceptor potency relative to the racemic mixture (β-adrenoreceptor; fold more potent than racemate): approximately two-fold; pKd (β-adrenoreceptor; [8]): 9.40
6 | Oc1ccccc1OCCNC[C@@H](O)COc1cccc2[nH]c3ccccc3c12 [R-DMC] | – | – | 6.06 | 4.93 | 2.82 | 1.52 | – | – | – | – | Plasma Concentration ([2]; patient 2, sampling time 1.0 hr, oral 25 mg racemic CAR): 2.40 ng/mL
7 | COc1ccc(O)cc1OCCNC[C@H](O)COc1cccc2[nH]c3ccccc3c12 [S-5′OHC] | – | – | – | – | – | – | 11.5 | 14.1 | 8.09 | 5.28 | –
8 | Oc1ccccc1OCCNC[C@H](O)COc1cccc2[nH]c3ccccc3c12 [S-DMC] | – | 3.27 | – | – | – | – | 9.92 | 8.52 | 5.02 | 2.73 | –
9 | COc1ccccc1OCCNC[C@@H](O)COc1cccc2[nH]c3ccccc3c12 [R-CAR] | 20.7 | 48.4 | – | – | – | – | – | – | – | – | pKd (α1-adrenoreceptor; [7]): 7.80; β-blocking activity relative to the racemate (β-adrenoreceptor; share of the racemate's activity): approximately 1%; pKd (β-adrenoreceptor; [8]): ~7.35
